Test results as given in patent US12582720B2, “Compound for preventing or treating lipid metabolism-related diseases” (Fudan University, priority 2020, dated 2026).
Entries after “also recorded” stand apart in the source; their conditions may differ.

Key:
[1] = test system: lipid droplets in wild type MEF cells; test: Reduction of OA-induced lipid droplets in wild type MEF cells (BODIPY 493/503 staining); format: cell-based, mouse; settings: wild type MEF, 24 h; for lipid droplets: 1.5 μM or 5 μM; for amount of lipid droplets / size of lipid droplets: OA-induced
Protocol: (5) OA-BSA stock solution was prepared into OA-BSA working solution (50× final concentration, 200 μM), and 40 μl of OA-BSA working solution was added to each well to induce lipid droplets. For the non-OA induction group, 40 μl of 10% BSA solution was added to the control well, and the amount of BSA was the same as that of the experimental group.
Compounds were formulated into DMSO stock solutions. Stock compounds were diluted with DMSO into the indicated concentrations of working solutions prior to use in the treatment of cells. After induction of the lipid droplets with OA for the indicated time, the test compounds were added to the cells respectively. Control wells were replaced with the equal volume of DMSO. Unless otherwise stated, the compounds were diluted into 10× solutions using the culture medium and added to the culture medium for 24 hours of incubation. Cells were treated with compounds in a 37° C. incubator with 5% CO2.
(3) The original medium in the multi-well plates was removed, washed and the cells was fixed, 1 ml of the BODIPY solution prepared in (1) was added to each well, and stained for 15 minutes. The staining solution was aspirated and washed with 1×PBS.
(5) The coverslips laid in the multi-well plates were removed, and imaged with the Zeiss 880 confocal microscope after mounted, and analyzed the size and number of lipid droplets with ImageJ.
Wild type MEF cells were cultured in a DMEM culture medium containing 10% FBS. Cells were plated according to the method as described above (12 well plate was plated with aseptic treated slides). When cells grew to a confluence of 60-70%, lipid droplets were induced with OA for 30 h according to the method as described above.
At the time point of 6th hour after initiation of induction, the cells were treated (treated for 24 hours) with Compound 1A or Compound 2A (compound concentrations were 50 μM, 15.8 μM, 5 μM, 1.58 μM, 0.5 μM, 0.158 μM) according to the method as described above.

[2] = test system: lipid droplets in autophagy-deficient MEF cells (Atg5−/−); test: Lipid droplets in autophagy-deficient MEF cells (Atg5-/-); format: cell-based, mouse; settings: 5 μM, 24 h
Protocol: Wild type MEF cells and autophagy-deficient MEF cells (Atg5−/−) were cultured in a DMEM culture medium containing 10% FBS. Cells were plated according to the method as described above (12 well plate was plated with aseptic treated slides). When cells grew to a confluence of 60-70%, lipid droplets were induced with OA for 30 h according to the method as described above. At the time point of 6th hour after initiation of induction, OA induced lipid droplets for 30 h, and the cells were treated (treated for 24 hours) with Compound 1A or Compound 2A according to the method as described above. […] The control wells were replaced with DMSO (treated with DMSO). […] After 26 hours of OA induction for lipid droplets, the culture medium of DMSO treated cells was replaced with EBSS, and starved for 4 hours to induce autophagy, and a slight reduction on lipid droplets was observed relative to cells without starvation treatment. Therefore, lipid droplets can be degraded via cell autophagy. The compound of present disclosure could promote the degradation of lipid droplets via cell autophagy.

[3] = test system: lipid droplets in SH-SY5Y cells; test: Reduction of OA-induced lipid droplets in SH-SY5Y cells; format: cell-based, human; settings: for amount of lipid droplet: 1.58 μM-50 μM; for amount of lipid droplet / size of lipid droplet: 24 h; for size of lipid droplet: 5 μM-50 μM; for lipid droplet levels: concentrations as indicated in FIG. 18, 24 h
Excerpt: The reduction of lipid droplets in SH-SY5Y cells by Compound 1A and Compound 2A was detected by a method that was similar to Example 2, and the result was shown in FIG. 18.
The effects of unconjugated LC3 binding Compound A1, A5 and unconjugated lipid droplet probe ORBB […] respectively on lipid droplets in SH-SY5Y cells (FIG. 20A) and MEF cells (FIG. 20B) were detected by a method similar to Example 2.

[4] = test system: lipid droplets in SH-SY5Y cells; test: Lipid droplets in SH-SY5Y cells in the presence of autophagy inhibitor NH4Cl; format: cell-based, human; settings: with NH4Cl 5 mM, 24 h
Protocol: By a method similar to Example 4, but after 6 hours from OA induction of lipid droplets, while the test compound was added into cells, autophagy inhibitor ammonium chloride (NH4Cl, final concentration of 5 mM) was added simultaneously. After continuous treatment for 24 hours, the lipid droplets were stained. […] Therefore, the compound of present disclosure reduced lipid droplets by targeting autophagy of cells.

[5] = test system: lipid droplets in 3T3-L1 fat precursor cell differentiated fat cells; test: Lipid droplets in 3T3-L1 fat precursor cell differentiated fat cells; format: cell-based, mouse; settings: 3T3-L1 differentiated fat cells, 24 h; for effect of the compound on lipid droplets under the treatment of NH4Cl: 5 μM + NH4Cl 5 mM; for amount of lipid droplets / size of lipid droplets: 5 μM
[6] = test system: autophagosome-lipid droplet colocalization in MEF cells; test: Colocalization of autophagosome and lipid droplets in mCherry-LC3B transfected MEF cells; format: cell-based, mouse; settings: 5 μM, 3 h, compared to DMSO control
Protocol: (1) In MEF cells, mCherry-LC3B was expressed by cDNA plasmid transfection.
(2) OA was added to the culture medium 30 hours after transfection to induce lipid droplets.
(3) Compounds were added to treat cells 6 hours after induction.
(4) 3 hours after compounds addition, cells were fixed and BODIPY stained.
(5) The coverslips laid in the multi-well plates were removed, and imaged with the Zeiss 880 confocal microscope after mounted to observe the aggregation of LC3 puncta around the lipid droplets.
In MEF cells, mCherry-LC3B was expressed by cDNA plasmid transfection. At 30th hour of overexpression, OA was added into cells for lipid droplet induction. 6 hours later, the compound was added for 3 hours' treatment, and then cells were subjected to immunostaining. […] Lipid droplets (green) were stained with BODIPY stain, and nucleus were indicated with DAPI stain. […] In FIG. 24, the colocalized autophagosome-lipid droplet was marked with circles.

[7] = test system: lipid droplets in LC3B knockout HEK293T cells; test: Lipid droplets in LC3B knockout HEK293T cells; format: cell-based, human; settings: 5 μM
Protocol: The effect of conjugated compounds (Compound 1A, Compound 2A, Compound 3A or Compound 4A at a concentration of 5 μM) on lipid droplets in LC3B knockout HEK293T cells was tested by a method similar to Example 2.

[8] = test system: lipid droplets in human normal liver cell line QSG7701; test: Endogenous lipid droplets in human normal liver cell line QSG7701; format: cell-based; settings: QSG7701, no induction, 5 μM, 24 h
Protocol: 10% FBS+90% RPMI 1640 culture medium was used for cultivation, cell incubator culture condition of 37° C. and 5% CO2 was used. Cells were plated as 50 thousands/well (12 well plate was plated with aseptic treated slides). When cells grew to a confluence of 80-90%, the compound (Compound 1A or Compound 2A, at a concentration of 5 μM) was added for treatment, and LC3 binding Compound A1, A5, lipid droplet probe Sudan IV as well as DMSO acted as a control. […]. In the compounds of present disclosure, LC3 binding moiety was covalently linked with lipid droplet binding moiety, and thus could achieve the effect of reducing liver cell endogenous lipid droplet.

LC3B = LC3B (Homo sapiens, UniProt Q9GZQ8); test: MST detection of affinity activity with LC3B; format: binding; parameters: His8 (with TEV site) (N); made in house; host or cells: Escherichia coli BL21(DE3)pLysS; settings: MST; read-out: Kd (μM), equilibrium dissociation constant between the conjugated compound and LC3B
Protocol: The recombinant GST-LC3B proteins were prepared and purified, dialyzed into 1×PBS, and then labelled with the red fluorophore with the protein labeling kit RED-NHS (Nanotemper, cat. no. L001).
The MST experiments were performed using the Monolith NT.115 instrument (NanoTemper Technologies). The reaction buffer contains 20 mM HEPES, pH 7.4, 150 mM NaCl, and the protein concentration was 500 nM. The MST data were collected under 40% infrared laser power and 20% light-emitting diode power. The data were analyzed by Nanotemper software.

wild type MEF cells = test: Integrity of nuclear membrane, cell membrane and mitochondria in MEF cells; format: cell-based, mouse; settings: 5 μM, 24 h
Protocol: Cells were blocked in 4% BSA+0.1% Triton X-100 in 1×PBS for 30 min and incubated overnight at 4° C. with primary antibody goat polyclonal Lamin B1 (1:200, Santa Cruz Biotechnology, cat. no. sc-6216, RRID: AB_648156), washed with blocking buffer, and incubated with secondary antibody (1:500, Alexa Flour488 donkey anti-goat, Jackson immunoResearch Lab, cat.no. 705-547-003, RRID: AB_2340431) at room temperature for 1 hour. The samples were washed three times and stained with DAPI for 10 min at room temperature.
MitoTracker staining and CellMask staining were performed the same as LysoTracker staining, except using MitoTracker™ Green FM (500 nM, Thermo Fisher, cat. no. M7514) staining for 3 hours to detect total mitochondria; MitoTracker™ Red CMXRos. (500 nM, Thermo Fisher, cat. no. M7512) staining for 3 hours to detect healthy mitochondria; and CellMask™ (2000×, CellMask™ Plasma Membrane Stains, Thermo Fisher, cat. no. C10046) staining for 5 minutes at 37° C.
Wild type MEF cells were treated with conjugated compound (Compound 1A, Compound 2A, Compound 3A or Compound 4A at a concentration of 5 μM) according to a method similar to Example 2. […]

[9] = test system: lipid droplets in wild type MEF cells; test: Reduction of OA-induced lipid droplets in wild type MEF cells (BODIPY 493/503 staining); format: cell-based, mouse

Compound	lipid droplets [1]	amount of lipid droplets ([1]; 0.5 μM-50 μM)	size of lipid droplets ([1]; 5 μM-50 μM)	lipid droplets [2]	amount of lipid droplet [3]	size of lipid droplet [3]	lipid droplet levels [3]	lipid droplets [4]	effect of the compound on lipid droplets under the treatment of NH4Cl [5]	amount of lipid droplets [5]	size of lipid droplets [5]	ratio of colocalization of red and green aggregation point (autophagosome-lipid droplet) [6]	reduction of lipid droplets induced by conjugated compounds after knockout of LC3B gene [7]	endogenous lipid droplets (amount) [8]	Kd (LC3B) [µM]	amount of lipid droplets ([1]; 1.58 μM-50 μM)	size of lipid droplets ([1]; 1.58 μM-50 μM)	integrity of nuclear membrane, cell membrane, mitochondrion membrane (wild type MEF cells)	lipid droplets ([9]; DMSO treated cells, 5 mM NH4Cl, 24 h, relative to cells not treated with NH4Cl)	amount or size of lipid droplets ([9]; wild type MEF, autophagy blocker NH4Cl)
3-(3,5-dibromo-4-hydroxylbenzylidene)-5-iodo-1-(10-((1-((E)-(4-((E)-phenyldiazenyl)phenyl)diazenyl)naphthalen-2-yl)oxy)decyl)indol-2-one [Compound 1A]	significantly reduced	significantly reduced	significantly reduced	does not change; also recorded: ineffective	significantly reduce	significantly reduce	significantly reduces	does not change; also recorded: did not reduce	blocked	could reduce	could change	significantly increased	largely blocked	significantly reduce; also recorded: could reduce	3.56	–	–	–	–	–
Cc1ccccc1/N=N/c1ccc(/N=N/c2c(OCCCCCCCCCCOc3cc(O)cc4oc(=O)cc(-c5ccccc5)c34)ccc3ccccc23)c(C)c1 [Compound 2A, 7-hydroxy-5-((10-((1-((E)-(2-methyl-4-((E)-o-methylphenyldiazenyl)phenyl)diazenyl)naphthalen-2-yl)oxy)decyl)oxy)-4-phenyl-2H-chromen-2-one]	significantly reduced	–	–	does not change; also recorded: ineffective	significantly reduce	significantly reduce	significantly reduces	does not change; also recorded: did not reduce	blocked	could reduce	could change	significantly increased	largely blocked	significantly reduce; also recorded: could reduce	5.37	significantly reduced	significantly reduced	–	–	–
Cc1ccccc1/N=N/c1ccc(/N=N/c2c(OCCCCCCCCCCOc3cc(O)c4c(-c5ccccc5)cc(=O)oc4c3)ccc3ccccc23)c(C)c1 [Compound 2]	–	–	–	–	–	–	–	–	–	–	–	–	–	–	–	–	–	Did not Affect	–	–
Cl.N [NH4Cl, ammonium chloride]	–	–	–	–	–	–	–	–	–	–	–	–	–	–	–	–	–	–	slight increase	slightly increased
